Reference: US20030106108A1, “Genetic transformation method for zoysiagrass” (priority 2001, published 2003)

Legend:
[1] = system: zoysiagrass calli; format: cell-based, Zoysia japonica Steud.
Procedure: Acetosyringone was prepared by dissolving an appropriate amount of powder in dimethyl sulfoxide at a concentration of 100 mg/ml and stored at 4° C. in the dark. It was added to the sterile medium to an appropriate final concentration whenever required. The calli proliferated on the MSCG4 medium were immersed in the Agrobacterial cell suspension for 1 min. After dehydration on sterile filter paper, the calli were cultivated on a co-cultivation medium (MSAS) with 4 mg/liter 2,4-D at 26±1° C. in the dark for 15 days. After co-cultivation, the calli were thoroughly washed by vortexing in sterile double-distilled water supplemented with a surfactant (0.02% pluronic F68) until the washing solution becomes transparent and finally washed in sterile double-distilled water containing 1000 mg/liter calbenicillin and 0.02% surfactant. After washing, an half of the calli were used for GUS activity assay by the method described by Schenk et al. (1998).
Several factors were tested to optimize transformation efficiency. (1) For comparison of different callus types on invasiveness, types 1, 2 and 3 calli were co-cultivated on 2,4-D-free MSAS media for 6 days; (2) For comparison of co-cultivation periods, calli were co-cultivated for 3, 6, 9, 12, 15, 18, 21, 24 and 27 days; (3) For examination of media components, different amounts of 2,4-D (0, 1, 2, 4, and 8 mg/liter), CaCl2 (0, 11, 110, 220, and 440 mg/liter), and acetosyringone (0, 10, 50, 100, and 200 mg/liter) were added to the MSAS media.

[2] = system: zoysiagrass type 1 calli; test: Growth of type 1 calli on MS media with combinations of 2,4-D and BA; format: cell-based, Zoysia japonica Steud.; conditions: for Callus fresh weight, Total / Callus fresh weight, Type 1 / Callus fresh weight, Type 2 / Callus fresh weight, Type 3 / Callus fresh weight, Type 4: BA 0 mg/l, 5 weeks, dark, 28° C., mean of ten calli
Procedure: To investigate morphological changes occurring on type 1 calli subculturing, type 1 calli were transferred to a MS medium containing various hormonal combinations of 2,4-D (1, 2, 4, and 8 mg/liter) and BA (0, 0.01, and 0.1 mg/liter) in the dark. After five weeks of subculturing in the dark, four callus types were observed. Each callus type was weighed, and the weight ratios were calculated. Calli of types 2, 3, and 4 were also examined in an identical way as with type 1 callus.
Ten mg of type 1 calli was grown on MS media with various combinations of 2,4-D and BA and 2 g/liter gelrite for 5 weeks in the dark at 28° C. Each value represents a mean calculated from ten calli. Callus morphologies were rated by; 1=whitish-yellow, compact and non-friable, 2=white, compact and friable, 3=yellow, compact and very friable, 4=translucent, soft and watery.

[3] = system: Agrobacterial cell; test: Agrobacterium elimination in shoot induction media; format: cell-based, Agrobacterium tumefaciens; conditions: 125 mg/liter calbenicillin-containing media
Procedure: The optimized conditions for the A. tumefaciens infection of zoysiagrass calli included the use of type 3 calli as donor, a co-cultivation period of 9 days, the exclusion of 2,4-D and CaCl2 from the media, and the use of 100 mg/l acetosyringone. After pGPTV-HB co-cultivation, calli were transferred to filter paper-laid MSCG media and cultured for 2-4 weeks in the dark. The calli were then transferred to filter paper-laid MSSI medium for shoot induction. Various concentrations (125, 250, and 500 mg/liter) of calbenicillin were added to the shoot induction medium. Induced shoots were subsequently transferred to the MSRS medium for rooting and selection for 4 weeks. Five mg/liter bialaphos and 10 mg/liter hygromycin were used for selection of bialaphos- and hygromycin-resistant plantlets. The rooting plants on the selection medium were transferred to the MSPG medium without antibiotics and bialaphos and further grown. The fully grown plants were then transferred to a pot containing soil and grown in an environmentally controlled growth chamber set at 30° C., 80% relative humidity and 18-hour photoperiod with 30 μmolm^−2s^−1 irradiance provided by cool white fluorescent tubes. When the roots developed enough, pots were transferred to green house. […]

Compound: COc1cc(C(C)=O)cc(OC)c1O [acetosyringone]
- Increase of the number of blue spots (factor) ([1]; 50 mg/liter acetosyringone in co-cultivation medium vs acetosyringone-free medium): 9
- Transformation efficiency ([1]; 30˜70 mg/liter acetosyringone during co-cultivation): greatly enhanced
- Effect on the transformation ([1]; higher than 100 mg/liter acetosyringone): negative effect

Compound: O=C(O)COc1ccc(Cl)cc1Cl [2,4-D, 2,4-dichlorophenoxyacetic acid]
- Callus fresh weight, Total ([2]; 2,4-D 1 mg/l): 81.5 mg
- Callus fresh weight, Type 1 ([2]; 2,4-D 1 mg/l): 45.8 mg
- Callus fresh weight, Type 2 ([2]; 2,4-D 1 mg/l): 22.3 mg
- Callus fresh weight, Type 3 ([2]; 2,4-D 1 mg/l): 0 mg
- Callus fresh weight, Type 4 ([2]; 2,4-D 1 mg/l): 13.4 mg
- Callus fresh weight, Total ([2]; 2,4-D 2 mg/l): 37.0 mg
- Callus fresh weight, Type 1 ([2]; 2,4-D 2 mg/l): 18.8 mg
- Callus fresh weight, Type 2 ([2]; 2,4-D 2 mg/l): 2.3 mg
- Callus fresh weight, Type 3 ([2]; 2,4-D 2 mg/l): 1.5 mg
- Callus fresh weight, Type 4 ([2]; 2,4-D 2 mg/l): 14.5 mg
- Callus fresh weight, Total ([2]; 2,4-D 4 mg/l): 29.6 mg
- Callus fresh weight, Type 1 ([2]; 2,4-D 4 mg/l): 11.4 mg
- Callus fresh weight, Type 2 ([2]; 2,4-D 4 mg/l): 0 mg
- Callus fresh weight, Type 3 ([2]; 2,4-D 4 mg/l): 0.9 mg
- Callus fresh weight, Type 4 ([2]; 2,4-D 4 mg/l): 17.2 mg
- Number of GUS blue spots per 1 g fresh weight of calli, effect of 2,4-D ([1]; 2,4-D 0, 1, 2, 4, 8 mg/liter in co-cultivation medium, 9 days of co-cultivation): decreased as the 2,4-D concentration increased

Compound: CC1(C)S[C@@H]2[C@H](NC(=O)C(C(=O)O)c3ccccc3)C(=O)N2[C@H]1C(=O)O (stereo partly shown) [calbenicillin]
- Agrobacterial cell contamination of media [3]: sometimes observed

Compound: [Ca+2].[Cl-].[Cl-] [CaCl2]
- Number of GUS blue spots per 1 g fresh weight calli, effect of CaCl2 ([1]; CaCl2 0, 11, 110, 220, 440 mg/liter in co-cultivation medium): decreased as the CaCl2 concentration increased

Compound: c1ccc(CNc2ncnc3[nH]cnc23)cc1 [BA]
- Reduction of incidence rate of non-regenerable type 4 calli ([2]; addition of 0.01 mg/liter BA in combination with 2,4-D): 1.8-3.4 times
